# Columns and labels:
# [1] = Remote loading of cyclodextrin-encapsulated dyes/drugs into liposomes; assay type: physicochemical
# Procedure: (§1) Equimolar quantities of the drug (0.1 mmol; 30-50 mg) and appropriate cyclodextrin ([…]; 110-185 mg) were dissolved separately in methanol (nearly saturated; ˜1-2 mL) and deionized water (˜10-20 mg/mL), respectively. The methanolic solution of the drug was then added dropwise into the cyclodextrin solution with agitation ensuring a uniform suspension. This suspension was then shaken at 55° C. for 36-48 hours using an Eppendorf Thermomixer R. The solution was filtered to remove particulate matter and flash frozen in a dry ice/acetone bath followed by lyophilization. The lyophilized complex was stored at −20° C. until further use.
# The lyophilized powder complex described above was pulverized and incubated with appropriate liposomal solutions (30-40 mg drug equivalent in 6 mL liposomal solution, to achieve loading ratios of 5-8 mg/mL concentrations) for 1 hour at 65° C. They were centrifuged at 1,000×g for 3 minutes to remove particulate matter and then dialyzed against 300 mM sucrose or commercial PBS solution (pH 7.4) overnight to remove material that had not been loaded into the liposomes. The size distributions of the liposomal formulations were characterized using the Malvem ZS90 instrument described above.
# The liposomal solution was dialyzed against PBS overnight.
# Organic dyes (coumarins) were used to determine whether the modified cyclodextrins could encapsulate and transport hydrophobic compounds across the liposome bilayer. […] It was determined that the most efficient and convenient way to encapsulate the coumarins was by freeze drying (Cao et al. (2005) Drug Dev. Industr. Pharm. 31:747-756; Badr-Eldin et al. (2008) Eur. J. Pharm. Biopharm. 70:819-827). […] Following overnight dialysis to remove unincorporated complexes, the liposomes were subsequently disrupted with methanol and the coumarin fluorescence measured. As shown by fluorescence spectroscopy, all cyclodextrin-dye complexes were incorporated into liposomes with high efficiency (>95%; FIG. 5). […]
# [2] = physchem; assay type: physicochemical; conditions: for solubility: water
# Procedure: as §1
# Organic dyes (coumarins) were used to determine whether the modified cyclodextrins could encapsulate and transport hydrophobic compounds across the liposome bilayer. Coumarins are very hydrophobic and a dramatic improvement in aqueous solubility was observed after they were encapsulated into 6′-mono-ethylenediamino-6′-deoxy-cyclodextrin (compound III). It was determined that the most efficient and convenient way to encapsulate the coumarins was by freeze drying (Cao et al. (2005) Drug Dev. Industr. Pharm. 31:747-756; Badr-Eldin et al. (2008) Eur. J. Pharm. Biopharm. 70:819-827). […] Once dissolved, the cyclodextrin-coumarin complexes were incubated with pre-formed liposomes exactly as described above, using a pH gradient to drive the compounds across the bilayer. Following overnight dialysis to remove unincorporated complexes, the liposomes were subsequently disrupted with methanol and the coumarin fluorescence measured. As shown by fluorescence spectroscopy, all cyclodextrin-dye complexes were incorporated into liposomes with high efficiency (>95%; FIG. 5). […] The incorporation of coumarin dyes into liposomes was easily discerned by the naked eye, as the coumarin-cyclodextrin liposomes were bright yellow, whereas control liposomes (made without cyclodextrins, for example) were colorless (FIGS. 5A-5C).
# [3] = Passive loading of BI-2536 into liposomes; assay type: physicochemical
# Procedure: Method 1: Encapsulation of BI-2536 in the lipid layer. Hydrogenated egg phosphatidylcholine (Avanti Polar Lipids), cholesterol, and DSPE-PEG2000 (Avanti Polar Lipids) (molar ratios 50:45:5) were dissolved in chloroform (20 mL). Ten milligrams of BI-2536 (in 1 mL chloroform) was added and the solvent was evaporated to generate a thin film. One milliliter of PBS (pH 7.4) was added to hydrate the lipid layer, and the mixture was shaken at 50° C. for 2 hours as described above. The vesicle suspension was sonicated for 30 min and then extruded successively through 0.4-, 0.2-, and 0.1-μm polycarbonate membranes (Whatman; Nuclepore Track-Etched Membrane) at 50° C. to obtain the final liposomes with low polydispersity at the desired size. The liposomes were then dialyzed in PBS overnight to remove unentrapped drug. The average size and polydispersity index were then measured by dynamic light-scattering experiments on a Malvem Z90. Drug content was calculated by rupturing the liposomes with an equal volume of methanol and measuring the UV-vis absorbance on a NanoDrop 1000.
# Method 2: Hydration of the lipid layer with an aqueous formulation of BI-2536. Hydrogenated egg phosphatidylcholine (Avanti Polar Lipids), cholesterol, and DSPE-PEG2000 (Avanti Polar Lipids) (molar ratios 50:45:5) were dissolved in chloroform (20 mL), and the solvent was evaporated in vacuo to generate a thin film. One milliliter of aqueous BI-2536 (4 mg; pH 5.5) was added to hydrate the lipid layer, and the mixture was shaken at 50° C. for 2 hours as described above. The vesicle suspension was sonicated for 30 minutes and then extruded successively through 0.4-, 0.2-, and 0.1-μm polycarbonate membranes (Whatman; Nuclepore Track-Etched Membrane) at 50° C. to obtain the final liposomes with low polydispersity at the desired size. The liposomes were then dialyzed against PBS overnight to remove unentrapped drug. The average size and polydispersity index were then measured by dynamic light-scattering experiments on a Malvem Z90. Drug content was calculated by rupturing the liposomes with an equal volume of methanol and measuring the UV-vis absorbance on a NanoDrop 1000.
# The cyclodextrin-based loading method was also compared with the most common approaches to entrapping hydrophobic and insoluble agents in liposomes. First, direct entrapment of BI-2536 in the lipid bilayer was attempted. BI-2536 was co-evaporated with hydrogenated egg phosphatidylcholine-cholesterol-1,2-distearoyl-sn-glycero-3-phosphoethanolamine-N-[methoxy(polyethylene glycol)-2000 (DSPE-PEG 2000) to prepare a thin film, which was subsequently hydrated with 1 mL PBS and extruded through a 100-nm polycarbonate membrane at 700 psi to prepare small, unilamellar vesicles (average particle size (Zavg) 126 nm; PDI 0.09). Upon overnight dialysis against PBS to remove unentrapped drug, the drug-containing liposomes rapidly swelled (Zavg 539 nm; PDI 0.49) and released nearly 90% of the entrapped drug. Second, the lipid film was hydrated with an aqueous formulation of BI-2536 (passive loading). Hydration of the lipid film, followed by extrusion and dialyses, led to stable liposomes. However, the encapsulation efficiency was <10%, 20-fold less than achievable with the modified cyclodextrins described herein.
# [4] = test system: HCT116 xenografts; assay: HCT116 subcutaneous xenograft tumor growth; assay type: in vivo, nude mice
# Procedure: (§2) Tumor volume was recorded every 48 hours.
# [5] = test system: HCT116 cells with genetically inactivated TP53 alleles; assay: Xenograft of HCT116 cells with genetically inactivated TP53 alleles; design: species or system nude mice; conditions: mouse, in vivo
# Procedure: as §2
# [6] = mouse, in vivo, iv, 100 mg/kg
# [7] = Phase II / Phase 2 trials; cited from earlier work
# [8] = in vivo; conditions: female, athymic nu/nu, mouse, iv
# [9] = test system: RKO xenografts; assay: RKO xenograft tumor growth; assay type: in vivo, nude mice; conditions: free drug 150 mg/kg
# Procedure: as §2
# With the free drug, severe acute toxicity was evident. In previous studies, the free drug was administered by oral gavage, because its solubility is not sufficient for intravenous dosing.
# [10] = mouse, in vivo, iv
# Procedure: Coumarin 334 was used as a drug surrogate to assess biodistribution and pharmacokinetics of cyclodextrin-encapsulated liposomes. […] Female athymic nu/nu mice bearing HCT116 subcutaneous xenografts were used in the study following a modified protocol described in Macdiarmid et al. (2007) Cancer Cell 11:431-445. When the tumor volumes reached 400-600 mm^3, 12 mice were treated intravenouslys (i.v.) with 200 μL cyclodextrin-encapsulated, liposomal (CYCL-)coumarin 334 (0.5 mg/mL). Posttreatment, four mice were euthanized at time points 2, 24, and 48 hours and tumor, spleen, liver, kidneys, heart, and lungs were excised and weighed. Blood was also collected, and plasma was separated and stored at 4° C. Except for plasma, each frozen tissue was homogenized and sonicated in 0.9% saline [3×volume (μL) of tissue mass (mg)]. […] The samples were centrifuged (6,000×g for 10 minutes) and the fluorescence in the supematants was measured by a CytoFluor II fluorescence multiwall plate reader (Applied Biosystems) using excitation 485 nm/emission 530 nm. […]
# To establish biodistribution and pharmacokinetics of the CYCL liposomes, liposomes loaded with coumarin 334 encapsulated in cyclodextrin VI were used to treat HCT116-bearing mice by intravenous (i.v.) injection. Samples from major tissues harvested at 2, 24, and 48 hours post-treatment were analyzed for their fluorescence.
# [11] = direct entrapment in lipid bilayer, after extrusion
# [12] = direct entrapment in lipid bilayer, after overnight dialysis against PBS
compound,measurement,setting,value
"6′,6′,6′,6′,6′,6′,6′-heptakis-succinyl-β-cyclodextrin [IX]","liposome loading of PD-0325901 among cyclodextrins VI, VII, VIII, IX",[1]; acidic or basic liposomes,best liposome loading
CC[C@@H]1C(=O)N(C)c2cnc(Nc3ccc(C(=O)NC4CCN(C)CC4)cc3OC)nc2N1C1CCCC1 [BI-2536],effect of aminated cyclodextrins V and VI on aqueous solubility,[2],dramatically improved
same,solubility,[2],500 µg/mL
same,PDI,[3]; [11],0.09
same,average particle size (Zavg),[3]; [11],126 nm
same,PDI,[3]; [12],0.49
same,average particle size (Zavg),[3]; [12],539 nm
same,entrapped drug released,"[3]; direct entrapment in lipid bilayer, overnight dialysis against PBS",~90%
same,encapsulation efficiency relative to modified cyclodextrins (fold less),[3]; passive loading,20 fold
same,encapsulation efficiency,[3]; passive loading: lipid film hydrated with aqueous BI-2536,< 10%
same,tumor regressions,"[4]; mouse, in vivo",not with free drug
same,slowing of tumor growth,[4]; two i.v. doses of 100 mg/kg,~30%
same,tumor regressions,[5],not with free drug
same,acute toxicity / survival,[6],"somewhat lethargic immediately after drug administration, but survived"
same,toxicity in clinical trials,[7],unacceptable toxicity (grade 4 neutropenia) at sub-therapeutic doses
same,MTD,[8],100 mg/kg
O=C(NOC[C@H](O)CO)c1ccc(F)c(F)c1Nc1ccc(I)cc1F [PD-0325901],increase in solubility after encapsulation into cyclodextrins,[2],~40 fold
same,solubility,[2],100 µg/mL
same,slowing of tumor growth,[9],~5%
same,toxicity in clinical trials,[7],retinal vein occlusion (RVO)
CCOC(=O)c1cc2cc3c4c(c2oc1=O)CCCN4CCC3 [coumarin 314],loading efficiency when encapsulated in unionizable native β-cyclodextrin,[1]; citrate liposomes,only marginally improved the loading efficiency
same,loading into liposomes in the absence of cyclodextrins,"[1]; citrate liposomes, identical conditions",poorly incorporated into liposomes
CC(=O)c1cc2cc3c4c(c2oc1=O)CCCN4CCC3 [coumarin 334],persistence in blood and tumor,[10],persisted in the blood and tumor
same,tissue clearance,[10],cleared from most of the tissues examined

# From US20190328665A1, “LIPOSOME COMPOSITIONS ENCAPSULATING MODIFIED CYCLODEXTRIN COMPLEXES AND USES THEREOF” (priority 2014, published 2019)
